Results: patent US20240327364A1, “THERAPEUTIC TARGETING OF GPR68 TO INDUCE FERROPTOSIS” (University Of Maryland, Baltimore, priority 2023, published 2024)

Key:
HT-1080 = test: Cell Titer-Glo viability, Fibrosarcoma; format: cell-based
Protocol: OGM2 kills wide variety of cancer cell types. Cell sensitivity can be classified in to Very Sensitive (LC50<2 μM), Sensitive (LC50=2 to 10 μM), Mildly Sensitive (LC50>10 μM), and Refractory (no killing at 10 μM). The listed established cell were incubated with OGM2 at 2 μM or 10 μM for 72 hours under standard cell culture conditions, and relative cell number was assessed using Cell Titer-Glo Luminescent Cell Viability Assay (Promega™) following the manufacturer's instructions. Luminescence was determined using a Cytation 5 reader and Gen5 software package (BioTek™).
Cancer cells, which are very sensitive to killing by OGM2 (LCs <2 μM), with reported mRNA expression of GPR68 and the related proton sensing receptor GPR4. LC50's (concentrations causing 50% lethality) were determined using CellTiter-Glo (Promega™, G7570). Cells were plated in 12-well plates (CELLTREAT Scientific Products, 229112) in 1 ml of DMEM with high glucose, GlutaMAX, HEPES, or RPMI 1640 with Penicillin-Streptomycin (ThermoFisher™, 10564029, 11875119 and 15140122) and 10% FBS. Cells were incubated overnight at 37° C. in 5% CO2. Then 1 mL of fresh media was added with DMSO, OGM, or positive control (Erastin; APExBIO Technology, LLC, B1524) and cells incubated for 3 days. On the third day, all media was removed, cells were rinsed with 1×PBS, PBS was removed, and 200 μL of 1× Passive Lysis Buffer (Promega™, E1941) was added to each well. […]. Subsequently, 20 μL of lysate was added to 100 μL CellTiter-Glo™ reagent on a LUMITRAC 200 plate (Greiner™ bio-one, 82050-726). Plates were briefly spun down and read on a GloMax-Multi Detection System (Promega™).
The cells listed in the tables above were incubated with OGM2 at 2 μM or 10 μM for 72 hours under standard cell culture conditions, and relative cell number was assessed using Cell Titer-Glo Luminescent Cell Viability Assay (Promega™) following the manufacturer's instructions. Luminescence was determined using a Cytation 5 reader and Gen5 software package (BioTek™). RNA expression of GPR68 and GPR4 in the corresponding cancer cell lines are listed, according to the publicly available The Human Protein Atlas version 22.0 and Ensembl version 103.38 (see proteinatlas.org). The consensus normalized expression value (“nTPM”=normalize transcript per million) was calculated as the maximum nTPM value for each gene in the two data sources.

ACVR2B = molecular target: T1, ACVR2B (Homo sapiens, UniProt Q13705); test: KinomeScan; format: binding; details: read-out: % Control
T1 construct: purchased DiscoveRx

MLK2 = molecular target: T2, MLK2 (Homo sapiens, UniProt Q02779); test: KinomeScan; format: binding; details: read-out: % Control
T2 construct: purchased DiscoveRx
T2 sequence (Q02779 whole entry): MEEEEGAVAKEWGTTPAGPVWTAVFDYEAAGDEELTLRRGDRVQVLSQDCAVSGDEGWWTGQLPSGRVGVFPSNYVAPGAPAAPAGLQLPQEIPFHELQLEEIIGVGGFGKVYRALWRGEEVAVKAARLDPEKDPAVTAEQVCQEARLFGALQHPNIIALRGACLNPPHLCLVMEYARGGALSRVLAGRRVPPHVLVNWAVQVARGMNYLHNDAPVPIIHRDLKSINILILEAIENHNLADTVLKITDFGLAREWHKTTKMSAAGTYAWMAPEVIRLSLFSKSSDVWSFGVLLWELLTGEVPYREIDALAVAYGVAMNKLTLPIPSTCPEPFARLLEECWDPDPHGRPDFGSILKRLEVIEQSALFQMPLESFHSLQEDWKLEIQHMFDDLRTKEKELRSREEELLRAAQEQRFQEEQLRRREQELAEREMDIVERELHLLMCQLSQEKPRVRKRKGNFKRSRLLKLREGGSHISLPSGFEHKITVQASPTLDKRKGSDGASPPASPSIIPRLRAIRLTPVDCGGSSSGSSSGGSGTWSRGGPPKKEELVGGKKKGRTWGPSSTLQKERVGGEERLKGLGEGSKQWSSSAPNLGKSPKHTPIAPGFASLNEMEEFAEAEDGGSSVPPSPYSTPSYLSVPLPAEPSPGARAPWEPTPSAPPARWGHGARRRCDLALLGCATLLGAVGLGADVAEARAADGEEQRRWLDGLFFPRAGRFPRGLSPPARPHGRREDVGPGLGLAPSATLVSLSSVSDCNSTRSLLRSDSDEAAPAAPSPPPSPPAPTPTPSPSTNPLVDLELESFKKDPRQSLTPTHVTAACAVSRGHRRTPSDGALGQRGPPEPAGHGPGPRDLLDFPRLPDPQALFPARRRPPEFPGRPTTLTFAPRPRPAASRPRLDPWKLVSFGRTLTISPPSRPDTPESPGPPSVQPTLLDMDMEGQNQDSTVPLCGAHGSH

[1] = molecular target: T3, JAK1(JH2domain-pseudokinase) (Homo sapiens, UniProt P23458); test: KinomeScan; format: binding; details: read-out: % Control
T3 construct: JAK1(JH2domain-pseudokinase); purchased DiscoveRx (Fremont, CA)

HIPK3 = molecular target: T4, HIPK3 (Homo sapiens, UniProt Q9H422); test: KinomeScan; format: binding; details: read-out: % Control
T4 construct: purchased DiscoveRx (Fremont, CA)

GPR39 = molecular target: T5, GPR39 (Homo sapiens, UniProt O43194); test: GPCR Profiler; format: cell-based
T5 construct: host or cells: Chem-1 cells expressing Gα15
T5 sequence (O43194 whole entry): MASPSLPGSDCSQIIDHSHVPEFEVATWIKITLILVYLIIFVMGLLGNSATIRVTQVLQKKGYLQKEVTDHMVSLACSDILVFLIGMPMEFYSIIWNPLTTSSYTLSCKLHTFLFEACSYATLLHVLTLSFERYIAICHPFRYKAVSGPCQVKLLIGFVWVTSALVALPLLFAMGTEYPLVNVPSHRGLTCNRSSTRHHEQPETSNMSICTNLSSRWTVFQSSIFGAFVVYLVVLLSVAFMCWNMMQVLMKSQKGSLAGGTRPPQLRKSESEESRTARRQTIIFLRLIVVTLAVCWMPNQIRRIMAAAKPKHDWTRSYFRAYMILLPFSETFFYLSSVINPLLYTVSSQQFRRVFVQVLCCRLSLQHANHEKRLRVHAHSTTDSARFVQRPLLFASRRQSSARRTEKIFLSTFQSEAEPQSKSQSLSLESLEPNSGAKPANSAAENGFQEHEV

EPHB2 = molecular target: T6, EPHB2 (Homo sapiens, UniProt P29323); test: KinomeScan; format: binding; details: read-out: % Control
T6 construct: purchased DiscoveRx (Fremont, CA)

BRAF(V600E) = molecular target: T7, BRAF(V600E) (Homo sapiens, UniProt P15056, V600E); test: KinomeScan; format: binding; details: read-out: % Control
T7 construct: purchased DiscoveRx (Fremont, CA)

MRCKB = molecular target: T8, MRCKB (Homo sapiens, UniProt Q9Y5S2); test: KinomeScan; format: binding; details: read-out: % Control
T8 construct: purchased DiscoveRx

ITK = molecular target: T9, ITK (Homo sapiens, UniProt Q08881); test: KinomeScan; format: binding; details: read-out: % Control
T9 construct: purchased DiscoveRx (Fremont, CA)

MCHR1 = molecular target: T10, MCHR1 (Homo sapiens, UniProt Q99705); test: GPCR Profiler; format: cell-based; details: 12.5 uM
T10 construct: host or cells: Chem-1 cells with promiscuous Gα15
T10 sequence (Q99705 whole entry, species assumed): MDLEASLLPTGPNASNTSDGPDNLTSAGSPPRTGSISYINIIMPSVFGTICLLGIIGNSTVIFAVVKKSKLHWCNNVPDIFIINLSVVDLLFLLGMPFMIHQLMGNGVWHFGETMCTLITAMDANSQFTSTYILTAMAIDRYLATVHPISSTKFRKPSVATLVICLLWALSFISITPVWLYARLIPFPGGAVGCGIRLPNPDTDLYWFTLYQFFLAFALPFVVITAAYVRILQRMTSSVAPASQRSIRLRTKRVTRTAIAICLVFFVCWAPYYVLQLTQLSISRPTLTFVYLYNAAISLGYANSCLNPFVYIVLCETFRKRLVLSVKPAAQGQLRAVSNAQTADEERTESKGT

STK16 = molecular target: T11, STK16 (Homo sapiens, UniProt O75716); test: KinomeScan; format: binding; details: read-out: % Control
T11 construct: purchased DiscoveRx (Fremont, CA)
T11 sequence (O75716 whole entry): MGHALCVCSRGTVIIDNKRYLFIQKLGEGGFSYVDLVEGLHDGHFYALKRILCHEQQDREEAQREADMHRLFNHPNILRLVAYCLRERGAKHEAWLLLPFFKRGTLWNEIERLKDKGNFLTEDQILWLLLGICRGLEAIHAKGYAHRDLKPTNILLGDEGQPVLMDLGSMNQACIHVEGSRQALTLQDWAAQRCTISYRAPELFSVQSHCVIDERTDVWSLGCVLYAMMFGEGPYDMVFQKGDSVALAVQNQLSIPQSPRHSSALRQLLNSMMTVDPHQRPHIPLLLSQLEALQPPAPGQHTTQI

NEK11 = molecular target: T12, NEK11 (Homo sapiens, UniProt Q8NG66); test: KinomeScan; format: binding; details: read-out: % Control
T12 construct: purchased DiscoveRx

EPHB3 = molecular target: T13, EPHB3 (Homo sapiens, UniProt P54753); test: KinomeScan; format: binding; details: read-out: % Control
T13 construct: purchased DiscoveRx (Fremont, CA)

5-HT2A = molecular target: T14, 5-HT2A (Homo sapiens, UniProt P28223); test: GPCR Profiler; format: cell-based
T14 construct: host or cells: Chem-1 cells with promiscuous Gα15
T14 sequence (P28223 whole entry): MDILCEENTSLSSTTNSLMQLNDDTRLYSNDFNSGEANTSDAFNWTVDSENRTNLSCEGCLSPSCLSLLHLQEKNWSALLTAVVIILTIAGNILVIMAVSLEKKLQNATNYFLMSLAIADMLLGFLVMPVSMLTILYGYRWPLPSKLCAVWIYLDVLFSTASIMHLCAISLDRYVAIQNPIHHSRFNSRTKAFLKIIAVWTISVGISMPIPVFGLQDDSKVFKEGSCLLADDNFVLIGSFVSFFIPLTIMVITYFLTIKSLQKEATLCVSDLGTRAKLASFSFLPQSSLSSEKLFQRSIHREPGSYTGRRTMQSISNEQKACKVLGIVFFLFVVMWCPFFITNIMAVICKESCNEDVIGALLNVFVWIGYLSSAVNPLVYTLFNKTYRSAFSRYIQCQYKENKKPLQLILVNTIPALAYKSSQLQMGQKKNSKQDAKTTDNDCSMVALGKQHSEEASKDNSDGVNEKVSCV
Protocol: (§1) GPCR profiling assays were performed by Millipore (St. Louis, MO) using in cells expressing Gα15, a promiscuous G protein that enhances GPCR coupling to downstream Ca2+ signaling pathways. KinomeScan was conducted by DiscoveRx (Fremont, CA).
(§2) To identify the target of OGM1, the molecule was profiled for binding in a panel of 442 kinases (KinomeScan™, DiscoveRx™) and assessed its activity against 158 GPCRs in a single-point assay in Chem-1 cells that uses a promiscuous Gα15 protein to trigger calcium flux (see Table 9 and Table 10, below). […] Table 9. KinomeScan (DiscoverRx) profiling of OGM1.

PRP = molecular target: T15, PRP (Homo sapiens, UniProt P49683); test: GPCR Profiler; format: cell-based
T15 construct: host or cells: Chem-1 cells with Gα15
T15 sequence (P49683 whole entry): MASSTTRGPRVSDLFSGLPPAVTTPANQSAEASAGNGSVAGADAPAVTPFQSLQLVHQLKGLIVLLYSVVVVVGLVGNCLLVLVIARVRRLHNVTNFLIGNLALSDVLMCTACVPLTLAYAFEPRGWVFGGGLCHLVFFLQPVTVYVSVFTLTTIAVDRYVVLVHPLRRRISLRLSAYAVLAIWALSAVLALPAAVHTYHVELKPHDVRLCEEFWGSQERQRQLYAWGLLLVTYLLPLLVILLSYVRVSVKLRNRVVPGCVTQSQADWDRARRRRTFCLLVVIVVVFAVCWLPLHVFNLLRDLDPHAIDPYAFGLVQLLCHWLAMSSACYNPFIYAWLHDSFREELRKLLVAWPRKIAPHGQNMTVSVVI
Protocol: as §1, §2

STK36 = molecular target: T16, STK36 (Homo sapiens, UniProt Q9NRP7); test: KinomeScan; format: binding; details: read-out: % Control
T16 construct: purchased DiscoveRx (Fremont, CA)
T16 sequence (Q9NRP7 whole entry): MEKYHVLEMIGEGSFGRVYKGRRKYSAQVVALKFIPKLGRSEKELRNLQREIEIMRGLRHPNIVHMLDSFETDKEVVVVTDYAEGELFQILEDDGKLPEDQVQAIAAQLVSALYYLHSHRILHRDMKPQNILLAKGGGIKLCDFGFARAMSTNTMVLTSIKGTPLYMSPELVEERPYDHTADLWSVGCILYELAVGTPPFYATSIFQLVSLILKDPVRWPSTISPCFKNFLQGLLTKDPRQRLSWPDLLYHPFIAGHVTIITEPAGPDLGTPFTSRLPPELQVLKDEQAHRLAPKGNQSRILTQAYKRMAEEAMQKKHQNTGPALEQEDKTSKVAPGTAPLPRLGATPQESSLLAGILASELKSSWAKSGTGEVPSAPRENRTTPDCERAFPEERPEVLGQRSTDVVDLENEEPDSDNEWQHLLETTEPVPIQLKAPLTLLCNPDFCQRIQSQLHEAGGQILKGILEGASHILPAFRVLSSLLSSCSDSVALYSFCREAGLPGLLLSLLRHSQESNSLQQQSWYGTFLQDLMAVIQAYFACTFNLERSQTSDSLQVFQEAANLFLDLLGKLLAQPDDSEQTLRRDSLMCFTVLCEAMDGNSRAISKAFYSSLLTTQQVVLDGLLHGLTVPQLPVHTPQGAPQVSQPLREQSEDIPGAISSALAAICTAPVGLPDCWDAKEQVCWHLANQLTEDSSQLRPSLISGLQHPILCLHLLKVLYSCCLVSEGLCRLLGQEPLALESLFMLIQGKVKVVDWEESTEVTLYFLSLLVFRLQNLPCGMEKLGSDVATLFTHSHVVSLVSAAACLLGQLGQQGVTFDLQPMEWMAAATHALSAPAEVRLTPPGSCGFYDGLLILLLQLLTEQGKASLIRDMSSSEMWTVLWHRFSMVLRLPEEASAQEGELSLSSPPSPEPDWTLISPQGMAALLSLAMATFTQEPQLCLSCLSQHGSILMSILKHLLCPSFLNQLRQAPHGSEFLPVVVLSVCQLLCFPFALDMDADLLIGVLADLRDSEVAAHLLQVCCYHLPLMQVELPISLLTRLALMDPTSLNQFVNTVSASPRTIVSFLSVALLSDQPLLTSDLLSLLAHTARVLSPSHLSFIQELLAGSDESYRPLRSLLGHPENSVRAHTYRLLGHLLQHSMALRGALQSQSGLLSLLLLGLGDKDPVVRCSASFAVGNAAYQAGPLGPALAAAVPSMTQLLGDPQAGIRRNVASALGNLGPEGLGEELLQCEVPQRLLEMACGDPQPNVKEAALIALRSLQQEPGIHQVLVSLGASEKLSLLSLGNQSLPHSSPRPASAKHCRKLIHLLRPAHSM

PLK4 = molecular target: T17, PLK4 (Homo sapiens, UniProt O00444); test: KinomeScan; format: binding; details: read-out: % Control
T17 construct: purchased DiscoveRx (Fremont, CA)

CysLT2 = molecular target: T18, CysLT2 (Homo sapiens, UniProt Q9NS75); test: GPCR Profiler; format: cell-based
T18 construct: host or cells: Chem-1 cells with Gα15
T18 sequence (Q9NS75 whole entry, species assumed): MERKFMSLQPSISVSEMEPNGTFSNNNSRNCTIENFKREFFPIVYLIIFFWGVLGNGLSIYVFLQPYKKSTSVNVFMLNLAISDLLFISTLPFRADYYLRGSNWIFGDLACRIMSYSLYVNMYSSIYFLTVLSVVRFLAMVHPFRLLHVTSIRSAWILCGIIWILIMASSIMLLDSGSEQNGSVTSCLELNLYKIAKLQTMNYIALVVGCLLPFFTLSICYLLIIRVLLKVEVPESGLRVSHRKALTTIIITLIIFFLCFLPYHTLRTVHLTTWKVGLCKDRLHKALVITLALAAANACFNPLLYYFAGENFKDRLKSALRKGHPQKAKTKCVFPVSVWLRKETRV

NMU1 = molecular target: T19, NMU1 (Homo sapiens, UniProt Q9HB89); test: GPCR Profiler; format: cell-based
T19 construct: host or cells: Chem-1 cells expressing Gα15
T19 sequence (Q9HB89 whole entry): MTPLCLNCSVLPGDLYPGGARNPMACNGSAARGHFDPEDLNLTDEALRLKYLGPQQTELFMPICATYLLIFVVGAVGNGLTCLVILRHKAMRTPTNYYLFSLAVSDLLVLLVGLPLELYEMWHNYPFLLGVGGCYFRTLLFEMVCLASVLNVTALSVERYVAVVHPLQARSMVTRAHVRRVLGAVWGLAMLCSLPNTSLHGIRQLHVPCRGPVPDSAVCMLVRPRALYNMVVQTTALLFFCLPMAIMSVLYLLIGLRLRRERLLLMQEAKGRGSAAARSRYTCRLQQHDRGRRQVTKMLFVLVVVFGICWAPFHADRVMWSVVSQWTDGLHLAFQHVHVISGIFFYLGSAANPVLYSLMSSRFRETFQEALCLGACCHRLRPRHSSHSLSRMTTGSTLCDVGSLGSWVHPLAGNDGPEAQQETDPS

For `CCc1ccc2c(c1)C1(NN=C(c3ccccc3)S1)C(=O)N2` (stereo not shown) [OGM2], the Class (HT-1080) was “Sensitive (Sensitive (LC50=2 to 10 μM))”, the “% Survival 2 μM OGM” value (HT-1080; 72 hours) was 64.2% and the “% Survival 10 μM OGM” value (HT-1080; 72 hours) was 21.4%. For the same compound, the CC50 (HT-1080; Homo sapiens, HT-1080, 72 hours, read-out: LC50 (the source's name)) was 2 to 10 µM.
With `CCc1ccc2c(c1)C1(NN=C(c3cccc4ccccc34)S1)C(=O)N2` (stereo not shown) [OGM1, 5-ethyl-5′-naphthalen-1-ylspiro[1H-indole-3,2′-3H-1,3,4-thiadiazole]-2-one] the remaining binding at 10 µM (ACVR2B) was 100%, the remaining binding at 10 µM (MLK2) was 100% and the remaining binding at 10 µM [1] was 100%. It also gave a remaining binding at 10 µM (HIPK3) of 67%, an Antagonism (GPR39; 10 uM) of 5.4 and an Agonism (GPR39; 12.5 uM) of 0. The remaining binding at 10 µM (EPHB2) was 100%, the remaining binding at 10 µM (BRAF(V600E)) was 94% and the remaining binding at 10 µM (MRCKB) was 100%. The remaining binding at 10 µM (ITK) was 100%, the Agonism (MCHR1) was −0.4 and the remaining binding at 10 µM (STK16) was 88%. For the same compound, the remaining binding at 10 µM (NEK11) was 88%, the remaining binding at 10 µM (EPHB3) was 100% and the Antagonism (5-HT2A; 10 uM) was −12.3. For the same compound, the Agonism (5-HT2A; 12.5 uM) was 1.2, the Antagonism (PRP; 10 uM) was −11.1 and the Agonism (PRP; 12.5 uM) was −0.3. The remaining binding at 10 µM (STK36) was 100%, the remaining binding at 10 µM (PLK4) was 71% and the Antagonism (CysLT2; 10 uM) was −7.1. For the same compound, the Agonism (CysLT2; 12.5 uM) was −0.3, the Antagonism (NMU1; 10 uM) was 6.2 and the Agonism (NMU1; 12.5 uM) was 1.8.
